Test results: US8722729B2, “Unsaturated fatty acid monoesters and diesters on ascorbic acid and cosmetic uses thereof” (Pierre Fabre Dermo-Cosmetique, priority 2009, dated 2014)
Marks after values point to notes of the source that are not given here.

Assays:
MMP-1 = assay: Gene expression of MMP-1 in human dermal fibroblasts treated with H2O2 (real-time PCR); assay type: cell-based; conditions: for RQ (relative quantity of mRNA) MMP-1 / % Inhibition of the level of mRNA expression MMP-1: 3 μM; for RQ (relative quantity of mRNA) MMP-1: senescent fibroblasts stimulated with H2O2, non-treated control = 1; for % Inhibition of the level of mRNA expression MMP-1: vs H2O2 alone
Protocol: (§1) To evidence the activity of the compounds of general formula (I) against skin ageing and against inflammation, the effect of these compounds was measured on the gene expression of MMP-1, MMP-3 and IL8 in human dermal fibroblasts treated with H2O2, thereby mimicking the process of cellular senescence. The effect of these compounds of general formula (I) was also measured on the synthesis of hyaluronic acid and on hyaluronidase activity. The stimulation of the synthesis of hyaluronic acid also allows skin hydration to be improved and/or restored (Bissett D L. J. Cosmet. Dermatol. 2006 Dec. 5(4): 309-15. Glucosamine: an ingredient with skin and other benefits).
(§2) Human dermal fibroblasts (isolated from discarded operative skin) were cultured in DMEM culture medium+10% FCS. The cells were pre-treated with vitamin C and the compound to be tested for 16 h at 37° C. and then stimulated with H2O2. The cells were then replaced in DMEM with vitamin C and dioctadeca-9,12-dienoate of (9Z,9′Z,12Z,12′Z)-2-(2,2-dimethyl-1,3-dioxolan-4-yl)-5-oxo-2,5-dihydrofuran-3,4-diyl. 72 hours after ending of stress, the fibroblasts entered into senescence: the senescent fibroblasts no longer proliferate but remain metabolically active (Hayflick, J. Invest. Dermatol., 73; 8-14, 1979). The cells were then lysed with the lysis buffer of the RNeasy® kit (QIAGEN).
(§3) The extracted RNAs were converted to complementary DNA following the indications of the Quantitect Reverse Transcription kit by Qiagen. Real-time PCR analyses were conducted using an iQ cycler fluorescence thermocycler (BIO-RAD).
(§4) The level of expression of the mRNAs coding for MMP-1, MMP-3, IL8 was analyzed using the real-time PCR technique. To normalize the level of expression of the gene of interest, the analysis strategy developed by Vandesompela et al., Genome Biol. 3: RESEARCH0034 (2002) was chosen. […] In our model, the three tested reference genes were the following: β-actin (Human β-actin), GAPDH (Human glyceraldehyde-3-phosphate dehydrogenase) and YWHAZ (Tyrosine-3-monooxygenase, tryptopgan-5-monooxygenase activation protein zeta polypeptide).
(§5) The first step normalizes the Ct values obtained for the gene of interest in relation to the Ct values obtained for the reference gene, for each experimental condition.
(§6) The following was therefore calculated: ΔCt=Ctgene of interest−Ctreference gene
(§7) The second step of the calculation determines the variation in the number of copies of the gene of interest during treatment. To do so ΔΔCt is calculated: ΔΔCt=ΔCtnon-treated NHF−ΔCttreated NHF
(§8) For the non-treated control, this QR is therefore equal to 1. It is then possible to calculate an induction or inhibition factor of the gene of interest compared with this control.
(§9) Statistical analysis was performed using a test called “one-way ANOVA”. Variance analysis using the Dunnett test then allows the comparing, for each of the analyzed genes, of the ΔCt values of normal adult fibroblasts with the compounds in the presence of H2O2 in both cases. This test then gives the “p value” characterizing the significance of the results obtained for both conditions The degree of significance was established as follows: • significant for p<0.05(*) • very significant for p<0.005(**) • highly significant for p<0.001(***) • non-significant for p>0.05. […]
(§10) It is also possible to calculate percentage inhibition of the level of expression of the different mRNAs by the active ingredients to be evaluated, using the formula: […]

MMP-3 = assay: Gene expression of MMP-3 in human dermal fibroblasts treated with H2O2 (real-time PCR); assay type: cell-based; conditions: for RQ (relative quantity of mRNA) MMP-3 / % Inhibition of the level of mRNA expression MMP-3: 3 μM; for RQ (relative quantity of mRNA) MMP-3: senescent fibroblasts stimulated with H2O2, non-treated control = 1; for % Inhibition of the level of mRNA expression MMP-3: vs H2O2 alone
Protocol: as §1, §2, §3, §4, §5, §6, §7, §8, §9, §10

IL-8 = assay: Gene expression of IL8 in human dermal fibroblasts treated with H2O2 (real-time PCR); assay type: cell-based; conditions: for RQ (relative quantity of mRNA) IL-8 / % Inhibition of the level of mRNA expression IL-8: 3 μM; for RQ (relative quantity of mRNA) IL-8: senescent fibroblasts stimulated with H2O2, non-treated control = 1; for % Inhibition of the level of mRNA expression IL-8: vs H2O2 alone
Protocol: as §1, §2, §3, §4, §5, §6, §7, §8, §9, §10

B16-F10 cells = assay: Assay of melanin in B16-F10 cells (colorimetric, α-MSH stimulated); assay type: cell-based, murine; conditions: for inhibition at 10 µM / inhibition at 20 µM / inhibition at 50 µM / inhibition at 100 µM: B16-F10, 72 hours, read-out: Percentage inhibition of intracellular melanin
Protocol: Similarly, to evidence the depigmenting activity of the compounds of general formula (I) according to the invention, the effect of these compounds was measured on the synthesis of melanin by colorimetric assay on a cell line of murine melanomas: line B16-F10.
This is a test to measure the synthesis of melanin by colorimetric assay on a cell line of murine melanomas: line B16-F10. This test allows the evaluation of the depigmenting property of active ingredients.
The B16-F10 cells were seeded onto 96-well plates in DMEM medium supplemented with FCS (fetal calf serum) and incubated 24 hours at 37° C., 5% CO2. The cells were then stimulated with α-MSH (to stimulate the synthesis of melanin, the stimulation observed was about 150%) and treated 72 hours with the active ingredients to be tested. Each concentration of active ingredient was tested at least in triplicate. Total melanin followed by intracellular melanin dissolved in lysis buffer were then assayed by absorbency reading at 405 nm. The total proteins were determined in the lysate and the results are expressed in mg melanin/mg proteins. The percentage activity was calculated as follows: […]
A negative value indicates an inhibition, whereas a positive value indicates induced synthesis of melanin.

keratinocytes HaCaT = assay: Assay of the synthesis of hyaluronic acid in HaCaT keratinocytes (ELISA); assay type: cell-based, human; conditions: for Percentage stimulation of the synthesis of hyaluronic acid: 48 h, vs control
Protocol: The keratinocytes HaCaT are cultured in DMEM culture medium+10% FCS. The cells are treated with the active ingredients to be tested (Table 1) for 48 h at 37° C. The synthesized hyaluronic acid (HA) is assayed in the culture medium using an ELISA type kit (Echelon®).
The percentage activity was determined as follows • percentage variation compared with the control %p/C=([HA]active ingred./[HA]control×100)−100 4.4.2 Results of the Assay of Hyaluronic Acid on the Line of Human Keratinocytes HaCaT

| Structure (SMILES) | Inhibition of MMP1 expression compared with ascorbic acid (MMP-1) | RQ (relative quantity of mRNA) MMP-1 (MMP-1) | % Inhibition of the level of mRNA expression MMP-1 (MMP-1) | Inhibition of MMP3 expression compared with ascorbic acid (MMP-3) | RQ (relative quantity of mRNA) MMP-3 (MMP-3) | % Inhibition of the level of mRNA expression MMP-3 (MMP-3) | Inhibition of IL-8 expression compared with ascorbic acid (IL-8) | RQ (relative quantity of mRNA) IL-8 (IL-8) | % Inhibition of the level of mRNA expression IL-8 (IL-8) | Inhibition of the synthesis of intracellular melanin compared with vitamin C (B16-F10 cells) | inhibition at 10 µM (B16-F10 cells; Mus musculus) [%] | inhibition at 20 µM (B16-F10 cells; Mus musculus) [%] | inhibition at 50 µM (B16-F10 cells; Mus musculus) [%] | inhibition at 100 µM (B16-F10 cells; Mus musculus) [%] | IC50 (B16-F10 cells; Mus musculus, B16-F10, α-MSH stimulated, read-out: IC50 intracellular melanin) [µM] | Percentage stimulation of the synthesis of hyaluronic acid (keratinocytes HaCaT; 2 μM) [%] | Percentage stimulation of the synthesis of hyaluronic acid (keratinocytes HaCaT; 20 μM) [%] | Percentage stimulation of the synthesis of hyaluronic acid (keratinocytes HaCaT; 30 μM) [%] | Percentage stimulation of the synthesis of hyaluronic acid (keratinocytes HaCaT; 300 μM) [%] | Effect on the synthesis of hyaluronic acid (keratinocytes HaCaT; 30 and 300 μM) |
| --- | --- | --- | --- | --- | --- | --- | --- | --- | --- | --- | --- | --- | --- | --- | --- | --- | --- | --- | --- | --- |
| CCCCC/C=C\C/C=C\CCCCCCCC(=O)OC1=C(OC(=O)CCCCCCC/C=C\C/C=C\CCCCC)C(C2COC(C)(C)O2)OC1=O (stereo not drawn) [Molecule 1, diactodeca-9,12-dienoate of (9Z,9′Z,12Z,12′Z)-2-(2,2-dimethyl-1,3-dioxolan-4-yl)-5-oxo-2,5-dihydrofuran-3,4-diyl] | more substantially inhibits the expression of MMP1, MMP3 and IL-8 than ascorbic acid | 0.9 | 105*** % | more substantially inhibits the expression of MMP1, MMP3 and IL-8 than ascorbic acid | 1.9 | 81*** % | more substantially inhibits the expression of MMP1, MMP3 and IL-8 than ascorbic acid | 0.9 | 102*** % | greater than that of vitamin C | 9 | 21 | 41 | 71 | 67 | 132 | 70 |  |  |  |
| O=C1O[C@H]([C@@H](O)CO)C(O)=C1O [Ascorbic acid, ascorbic acid] |  | 3.2 | 18% |  | 3.5 | 50* % |  | 1.2 | 92*** % |  | -5 | 7 | 5 | 22 |  |  |  | 9 | 19 | no effect |
